Assay results as given in patent US20250230171A1 (MOMA Therapeutics, Inc., priority 2023, published 2025).
Read-outs that look alike come from different tables or passages of the source.

Experiments:
DLD1 BRCA2 (−/−) cells = assay: 7-day cell viability assay (CellTiter-Glo), DLD1 BRCA2 (−/−); format: cell-based, human; details: Homo sapiens, DLD-1, 168 h, n=2, read-out: Viability IC50 (uM) DLD1 BRCA2 null
Summary of the method: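 7-day growth assay in DLD1 cells with or without BRCA2; seeding densities chosen to keep log-linear growth. Compound: 10 uM top, 3-fold, 9 points. Endpoint: CTG ATP luminescence at RT.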

[1] = target: biotinylated Avi-POLθ[2-894] (Homo sapiens (Human), UniProt O75417); assay: POLθ ATPase assay (ADP-Glo); details: n=2, read-out: Biochemical ATPase ADPGlo IC50
DLD1 WT cells = assay: 7-day cell viability assay (CellTiter-Glo), DLD1 parental (WT); format: cell-based, human; details: Homo sapiens, DLD-1, 168 h, n=2

Chain of biotinylated Avi-POLθ[2-894] (O75417 2-894): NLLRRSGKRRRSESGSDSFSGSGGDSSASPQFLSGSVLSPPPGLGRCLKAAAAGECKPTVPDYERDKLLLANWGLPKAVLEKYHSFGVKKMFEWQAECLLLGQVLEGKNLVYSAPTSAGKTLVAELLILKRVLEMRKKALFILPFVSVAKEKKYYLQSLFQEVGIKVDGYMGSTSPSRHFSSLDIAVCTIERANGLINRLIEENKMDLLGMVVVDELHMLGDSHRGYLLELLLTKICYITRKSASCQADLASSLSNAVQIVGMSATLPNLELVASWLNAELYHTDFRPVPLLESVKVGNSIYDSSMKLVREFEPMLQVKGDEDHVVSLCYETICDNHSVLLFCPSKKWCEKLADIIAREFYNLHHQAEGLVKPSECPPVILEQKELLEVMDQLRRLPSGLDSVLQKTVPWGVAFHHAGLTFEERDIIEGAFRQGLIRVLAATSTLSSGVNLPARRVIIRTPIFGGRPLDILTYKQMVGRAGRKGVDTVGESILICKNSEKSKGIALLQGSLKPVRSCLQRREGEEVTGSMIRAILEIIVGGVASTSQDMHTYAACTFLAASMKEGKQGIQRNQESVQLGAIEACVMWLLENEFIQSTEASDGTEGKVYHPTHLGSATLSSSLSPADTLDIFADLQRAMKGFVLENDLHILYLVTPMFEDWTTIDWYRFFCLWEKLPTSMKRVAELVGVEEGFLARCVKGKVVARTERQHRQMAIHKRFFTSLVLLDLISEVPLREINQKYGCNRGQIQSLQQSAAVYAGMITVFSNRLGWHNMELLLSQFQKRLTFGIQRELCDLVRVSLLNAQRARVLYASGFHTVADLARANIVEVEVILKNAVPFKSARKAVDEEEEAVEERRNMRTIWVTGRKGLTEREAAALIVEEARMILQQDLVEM

Row | Compound | IC50 (DLD1 BRCA2 (−/−) cells; 7-day viability) | IC50 [1] | IC50 (DLD1 WT cells; 7-day viability) | IC50 (DLD1 BRCA2 (−/−) cells; 7-day CellTiter-Glo) | IC50 ([1]; POLθ ATPase, ADP-Glo) | IC50 (DLD1 WT cells; 7-day CellTiter-Glo)
1 | COc1cnc(Cl)cc1-c1cc(C)ncc1C(=O)Nc1nc2c(s1)CC(Nc1ccccc1)CC2 (stereo not drawn) | 0.1 to 0.25 µM | 1 to 15 nM | ≥ 10 µM |  |  | 
2 | COc1cnc(Cl)cc1-c1cc(C)ncc1C(=O)Nc1nc2c(s1)CN(C(=O)c1cn(C)nc1OC)C2 | 0.25 to 0.5 µM | 1 to 15 nM | ≥ 10 µM |  |  | 
3 | COc1ccc(C#N)cc1-c1cc(C)ncc1C(=O)Nc1nc2c(s1)CN(S(=O)(=O)NC1CC1)C2 | ≥ 2 µM | 1 to 15 nM | ≥ 10 µM |  |  | 
4 | COc1ccc(C#N)cc1-c1cc(C)ncc1C(=O)Nc1nc2c(s1)CN(C(=O)C1CC(CC(F)F)C1)C2 (stereo not drawn) | 0.5 to 2 µM | 1 to 15 nM | ≥ 10 µM |  |  | 
5 | COc1ccc(C#N)cc1-c1cc(C)ncc1C(=O)Nc1nc2c(s1)CN(C(=O)[C@H]1C[C@@H](C#N)C1)C2 | ≥ 2 µM | 1 to 15 nM | ≥ 10 µM |  |  | 
6 | COc1ccc(C#N)cc1-c1cc(C)ncc1C(=O)Nc1nc2c(s1)CN(C(=O)C1CCCC1)C2 | 0.5 to 2 µM | 1 to 15 nM | ≥ 10 µM |  |  | 
7 | COc1ccc(C#N)cc1-c1cc(C)ncc1C(=O)Nc1nc2c(s1)CN(C(=O)[C@H]1C[C@@H](OC)C1)C2 | 0.5 to 2 µM | 1 to 15 nM | ≥ 10 µM |  |  | 
8 | COc1ccc(C#N)cc1-c1cc(C)ncc1C(=O)Nc1nc2c(s1)CN(S(=O)(=O)N1CCOCC1)C2 | ≥ 2 µM | 1 to 15 nM | ≥ 10 µM |  |  | 
9 | COc1ccc(C#N)cc1-c1cc(C)ncc1C(=O)Nc1nc2c(s1)CN(S(=O)(=O)N1CCCC1)C2 | 0.5 to 2 µM | 1 to 15 nM | ≥ 10 µM |  |  | 
10 | COc1ccc(C#N)cc1-c1cc(C)ncc1C(=O)Nc1nc2c(s1)CN(C(=O)c1ccncc1)C2 | ≥ 2 µM | 1 to 15 nM | ≥ 10 µM |  |  | 
11 | COc1ccc(C#N)cc1-c1cc(C)ncc1C(=O)Nc1nc2c(s1)CN(S(=O)(=O)N1CCCCC1)C2 | 0.5 to 2 µM | 1 to 15 nM | ≥ 10 µM |  |  | 
12 | COc1ccc(C#N)cc1-c1cc(C)ncc1C(=O)Nc1nc2c(s1)CN(C(=O)c1ccncc1C)C2 | ≥ 2 µM | 1 to 15 nM | ≥ 10 µM |  |  | 
13 | COc1ccc(C#N)cc1-c1cc(C)ncc1C(=O)Nc1nc2c(s1)CN(S(=O)(=O)NCC(F)(F)F)C2 | ≥ 2 µM | 1 to 15 nM | ≥ 10 µM |  |  | 
14 | COc1ccc(C#N)cc1-c1cc(C)ncc1C(=O)Nc1nc2c(s1)CN(C(=O)C1CCCCC1)C2 | 0.5 to 2 µM | 1 to 15 nM | ≥ 10 µM |  |  | 
15 | COc1ccc(C#N)cc1-c1cc(C)ncc1C(=O)Nc1nc2c(s1)CN(S(=O)(=O)C1CC1)C2 | ≥ 2 µM | 15 to 50 nM | ≥ 10 µM |  |  | 
16 | COc1ccc(C#N)cc1-c1cc(C)ncc1C(=O)Nc1nc2c(s1)CN(S(=O)(=O)NC(C)(C)C)C2 | ≥ 2 µM | 1 to 15 nM | ≥ 10 µM |  |  | 
17 | COc1ccc(C#N)cc1-c1cc(C)ncc1C(=O)Nc1nc2c(s1)CN(C(=O)c1ncccc1C)C2 | 0.5 to 2 µM | 1 to 15 nM | ≥ 10 µM |  |  | 
18 | COc1ccc(C#N)cc1-c1cc(C)ncc1C(=O)Nc1nc2c(s1)CN(S(=O)(=O)NCC(C)C)C2 | 0.5 to 2 µM | 1 to 15 nM | ≥ 10 µM |  |  | 
19 | COc1ccc(C#N)cc1-c1cc(C)ncc1C(=O)Nc1nc2c(s1)CC(Nc1ccccc1)CC2 (stereo not drawn) | 0.1 to 0.25 µM | 1 to 15 nM | ≥ 10 µM |  |  | 
20 | COc1ccc(C#N)cc1-c1cc(C)ncc1C(=O)Nc1nc2c(s1)CN(C(=O)c1cccc(C)n1)C2 | 0.5 to 2 µM | 1 to 15 nM | ≥ 10 µM |  |  | 
21 | COc1ccccc1-c1cc(C)ncc1C(=O)Nc1nc2c(s1)CN(C(=O)C1CC1)C2 | ≥ 2 µM | 150 to 900 nM | ≥ 10 µM |  |  | 
22 | COc1ccccc1-c1cc(C)ncc1C(=O)Nc1nc2c(s1)CN(C(=O)C1CC1)CC2 | ≥ 2 µM | ≥ 900 nM | 0.5 to 2 µM |  |  | 
23 | COc1ccccc1-c1cc(C)ncc1C(=O)Nc1nc2c(s1)CN(c1ccc(Cl)cc1)CC2 | ≥ 2 µM | ≥ 900 nM | ≥ 10 µM |  |  | 

Row | Compound | IC50 (DLD1 BRCA2 (−/−) cells; 7-day viability) | IC50 [1] | IC50 (DLD1 WT cells; 7-day viability) | IC50 (DLD1 BRCA2 (−/−) cells; 7-day CellTiter-Glo) | IC50 ([1]; POLθ ATPase, ADP-Glo) | IC50 (DLD1 WT cells; 7-day CellTiter-Glo)
24 | COc1ccccc1-c1cc(C)ncc1C(=O)Nc1nc2c(s1)CN(CC1CCCCC1)CC2 | ≥ 2 µM | ≥ 900 nM | ≥ 10 µM |  |  | 
25 | COc1ccccc1-c1cc(C)ncc1C(=O)Nc1nc2c(s1)CN(C(=O)c1ccccc1)CC2 | 0.5 to 2 µM | ≥ 900 nM | 0.5 to 2 µM |  |  | 
26 | COc1ccccc1-c1cc(C)ncc1C(=O)Nc1nc2c(s1)CN(Cc1ccccc1)CC2 | 0.5 to 2 µM | ≥ 900 nM | 0.5 to 2 µM |  |  | 
27 | COc1ccccc1-c1cc(C)ncc1C(=O)Nc1nc2c(s1)C(=O)NCC2 | ≥ 2 µM | ≥ 900 nM | ≥ 10 µM |  |  | 
28 | COc1ccccc1-c1cc(C)ncc1C(=O)Nc1nc2c(s1)CNCC2 | ≥ 2 µM | ≥ 900 nM | ≥ 10 µM |  |  | 
29 | COc1cnc(Cl)cc1-c1cc(C)ncc1C(=O)Nc1nc2c(s1)CN(C(=O)c1ccc(F)c(C(F)F)c1)C2 |  |  |  | 0.001 to 0.1 µM | 1 to 15 nM | 5 to 10 µM
30 | COc1cnc(Cl)cc1-c1cc(C)ncc1C(=O)Nc1nc2c(s1)CN(C(=O)c1cccc(Cl)c1OC)C2 |  |  |  | 0.001 to 0.1 µM | 1 to 15 nM | 5 to 10 µM
31 | COc1cnc(Cl)cc1-c1cc(C)ncc1C(=O)Nc1nc2c(s1)CN(C(=O)c1ccc(C(F)(F)F)c(Cl)n1)C2 |  |  |  | 0.001 to 0.1 µM | 1 to 15 nM | ≥ 10 µM
32 | COc1cnc(Cl)cc1-c1cc(C)ncc1C(=O)Nc1nc2c(s1)CN(C(=O)c1ncc(Br)cc1OC)C2 |  |  |  | 0.1 to 0.25 µM | 1 to 15 nM | ≥ 10 µM
33 | COc1cnc(Cl)cc1-c1cc(C)ncc1C(=O)Nc1nc2c(s1)CN(C(=O)c1ccc(C(F)F)cc1Cl)C2 |  |  |  | 0.001 to 0.1 µM | 1 to 15 nM | ≥ 10 µM
34 | COc1cnc(Cl)cc1-c1cc(C)ncc1C(=O)Nc1nc2c(s1)CN(C(=O)c1nc(C(F)F)ccc1Cl)C2 |  |  |  | 0.001 to 0.1 µM | 1 to 15 nM | ≥ 10 µM
35 | COc1cnc(Cl)cc1-c1cc(C)ncc1C(=O)Nc1nc2c(s1)CN(C(=O)c1nccc(Cl)c1C)C2 |  |  |  | 0.001 to 0.1 µM | 1 to 15 nM | ≥ 10 µM
36 | COc1cnc(Cl)cc1-c1cc(C)ncc1C(=O)Nc1nc2c(s1)CN(C(=O)c1nc3ccccc3o1)C2 |  |  |  | 0.001 to 0.1 µM | 1 to 15 nM | ≥ 10 µM
37 | COc1ccc(C#N)cc1-c1cc(C)ncc1C(=O)Nc1nc2c(s1)CN(C(=O)c1cccc(C(F)F)c1)C2 |  |  |  | 0.1 to 0.25 µM | 1 to 15 nM | ≥ 10 µM
38 | COc1ccc(C#N)cc1-c1cc(C)ncc1C(=O)Nc1nc2c(s1)CN(C(=O)c1ccc(C(F)F)c(F)c1)C2 |  |  |  | 0.001 to 0.1 µM | 1 to 15 nM | ≥ 10 µM
39 | COc1cc(C(=O)N2Cc3nc(NC(=O)c4cnc(C)cc4-c4cc(C#N)ccc4OC)sc3C2)ccc1Cl |  |  |  | 0.001 to 0.1 µM | 1 to 15 nM | 5 to 10 µM
40 | COc1cc(Cl)nc(C(=O)N2Cc3nc(NC(=O)c4cnc(C)cc4-c4cc(Cl)ncc4OC)sc3C2)c1 |  |  |  | 0.001 to 0.1 µM | 1 to 15 nM | ≥ 10 µM
41 | COc1ccc(C#N)cc1-c1cc(C)ncc1C(=O)Nc1nc2c(s1)CN(C(=O)c1cccc(OC)c1Cl)C2 |  |  |  | 0.001 to 0.1 µM | 1 to 15 nM | ≥ 10 µM
42 | COc1cnc(Cl)cc1-c1cc(C)ncc1C(=O)Nc1nc2c(s1)CN(C(=O)c1nccn3nccc13)C2 |  |  |  | 0.001 to 0.1 µM | 1 to 15 nM | ≥ 10 µM
43 | COc1cnc(Cl)cc1-c1cc(C)ncc1C(=O)Nc1nc2c(s1)CN(C(=O)c1ccc(OC)c(C(F)F)n1)C2 |  |  |  | 0.001 to 0.1 µM | 1 to 15 nM | ≥ 10 µM
44 | COc1nnc(Cl)cc1-c1cc(C)ncc1C(=O)Nc1nc2c(s1)CN(C(=O)c1ccc(C(F)F)cn1)C2 |  |  |  | 0.001 to 0.1 µM | 1 to 15 nM | ≥ 10 µM
45 | COc1cnc(Cl)cc1-c1cc(C)ncc1C(=O)Nc1nc2c(s1)CN(C(=O)c1ccc(OC(F)F)nc1Cl)C2 |  |  |  | 0.001 to 0.1 µM | 1 to 15 nM | ≥ 10 µM
